ChEMBL document CHEMBL4311982, “Discovery of novel, potent, isosteviol-based antithrombotic agents” (Eur J Med Chem, 2019)

Key:
Coagulation factor X = Coagulation factor X (Homo sapiens, UniProt P00742); test: Inhibition of human activated Factor X using S-2765 as substrate incubated for 15 mins followed by substrate addition and measured after 1 hr by chromogenic assay
Rattus norvegicus [1] = species on record: Rattus norvegicus; note: test concentration or dose not given here
[2] = MRT in Wistar rat at 22 umol/kg, po measured upto 24 hrs by LC-MS/MS analysis; format: ADME, organism-based; details: in vivo
[3] = Clearance in Wistar rat at 6.6 umol/kg, iv measured upto 24 hrs by LC-MS/MS analysis; format: ADME, organism-based; details: in vivo
[4] = Half life in Wistar rat at 22 umol/kg, po measured upto 24 hrs by LC-MS/MS analysis; format: ADME, organism-based; details: in vivo
[5] = AUC (0 to infinity) in Wistar rat at 22 umol/kg, po measured upto 24 hrs by LC-MS/MS analysis; format: ADME, organism-based; parameters: dose 22 umol/kg, time infinity, route oral; details: in vivo
[6] = Volume of distribution in Wistar rat at 22 umol/kg, po measured upto 24 hrs by LC-MS/MS analysis; format: ADME, organism-based; details: in vivo
[7] = Half life in Wistar rat at 6.6 umol/kg, iv measured upto 24 hrs by LC-MS/MS analysis; format: ADME, organism-based; details: in vivo
[8] = Cmax in Wistar rat at 22 umol/kg, po measured upto 24 hrs by LC-MS/MS analysis; format: ADME, organism-based; parameters: dose 22 umol/kg, route oral; details: in vivo
Rattus norvegicus [9] = species on record: Rattus norvegicus; remark: listed apart in the source; note: test concentration or dose not given here
[10] = AUC (0 to infinity) in Wistar rat at 6.6 umol/kg, iv measured upto 24 hrs by LC-MS/MS analysis; format: ADME, organism-based; parameters: dose 6.6 umol/kg, time infinity, route intravenous; details: in vivo
[11] = Volume of distribution in Wistar rat at 6.6 umol/kg, iv measured upto 24 hrs by LC-MS/MS analysis; format: ADME, organism-based; details: in vivo
Rattus norvegicus [12] = species on record: Rattus norvegicus; remark: listed apart in the source; note: test concentration or dose not given here
[13] = Clearance in Wistar rat at 22 umol/kg, po measured upto 24 hrs by LC-MS/MS analysis; format: ADME, organism-based; details: in vivo
[14] = Oral bioavailability in Wistar rat at 22 umol/kg measured upto 24 hrs by LC-MS/MS analysis; format: ADME, organism-based; details: in vivo
[15] = MRT in Wistar rat at 6.6 umol/kg, iv measured upto 24 hrs by LC-MS/MS analysis; format: ADME, organism-based; details: in vivo

Chain of Coagulation factor X (P00742 41-179 limits assumed): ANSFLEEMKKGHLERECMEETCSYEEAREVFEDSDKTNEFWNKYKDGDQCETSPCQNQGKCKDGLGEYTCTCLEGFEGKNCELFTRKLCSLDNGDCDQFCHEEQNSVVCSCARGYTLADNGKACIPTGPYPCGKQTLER
Chain of Coagulation factor X (P00742 235-488 limits assumed): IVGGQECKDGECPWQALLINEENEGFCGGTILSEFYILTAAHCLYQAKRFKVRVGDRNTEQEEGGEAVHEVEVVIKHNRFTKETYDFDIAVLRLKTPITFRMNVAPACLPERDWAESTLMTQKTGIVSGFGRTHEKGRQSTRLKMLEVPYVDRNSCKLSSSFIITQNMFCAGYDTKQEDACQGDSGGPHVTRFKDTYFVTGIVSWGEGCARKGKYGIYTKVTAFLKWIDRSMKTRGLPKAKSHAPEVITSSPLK

Q: For `CCOC(=O)[C@]1(C)CCC[C@@]2(C)[C@@H]3CC[C@@]4(C)C[C@]3(CC[C@@H]21)C/C4=N\OC1CCOCC1`, which Ki (Coagulation factor X) is on record?
A: 1.81 µM

Q: Which Ki (Coagulation factor X) does the source give for `CCOC(=O)[C@]1(C)CCC[C@@]2(C)[C@@H]3CC[C@@]4(C)C[C@]3(CC[C@@H]21)C/C4=N\OC/C=C/c1ccc2c(c1)COC2=O` here?
A: 20.7 µM

Q: With `CCOC(=O)[C@]1(C)CCC[C@@]2(C)[C@@H]3CC[C@@]4(C)C[C@]3(CC[C@@H]21)C/C4=N\OC/C=C/c1ccc2occc2c1` as the molecule, how does the Ki (Coagulation factor X) read?
A: 10.3 µM

Q: Which Ki (Coagulation factor X) does the source give for `CCOC(=O)[C@]1(C)CCC[C@@]2(C)[C@@H]3CC[C@@]4(C)C[C@]3(CC[C@@H]21)C/C4=N\OCCN1CCOCC1` here?
A: 0.785 µM

Q: Which Ki (Coagulation factor X) does the source give for `CCOC(=O)[C@]1(C)CCC[C@@]2(C)[C@@H]3CC[C@@]4(C)C[C@]3(CC[C@@H]21)C/C4=N\OC/C=C/c1ccc([N+](=O)[O-])cc1` here?
A: 2.64 µM

Q: Which Ki (Coagulation factor X) does the source give for `CCOC(=O)[C@]1(C)CCC[C@@]2(C)[C@@H]3CC[C@@]4(C)C[C@]3(CC[C@@H]21)C/C4=N\OC/C=C/c1c[nH]c(C(=O)OC)c1` here?
A: 1.91 µM

Q: Which results are given for `CCOC(=O)[C@]1(C)CCC[C@@]2(C)[C@@H]3CC[C@@]4(C)C[C@]3(CC[C@@H]21)C/C4=N/O`?
A: TT (Rattus norvegicus [1]): 18.9 min; Ki (Coagulation factor X): 2.65 µM

Q: With `CCOC(=O)[C@]1(C)CCC[C@@]2(C)[C@@H]3CC[C@@]4(C)C[C@]3(CC[C@@H]21)C/C4=N\OC/C=C/c1ccc(CN2CCOCC2)cc1` as the molecule, how does the Ki (Coagulation factor X) read?
A: 2.49 µM

Q: For `CCOC(=O)[C@]1(C)CCC[C@@]2(C)[C@@H]3CC[C@@]4(C)C[C@]3(CC[C@@H]21)C/C4=N\OC/C=C/c1ccc(C(C)=O)cc1`, which Ki (Coagulation factor X) is on record?
A: 1.64 µM

Q: For `C[C@@]12CC[C@@H]3[C@@](CC[C@H]4[C@@]3(C)CCC[C@@]4(C)C(=O)O)(C[C@H]1O)C2`, which TT (Rattus norvegicus [1]) is on record?
A: 9.2 min

Q: What about the Ki (Coagulation factor X) of the same molecule?
A: 27.6 µM

Q: With `CCOC(=O)[C@]1(C)CCC[C@@]2(C)[C@@H]3CC[C@@]4(C)C[C@]3(CC[C@@H]21)C/C4=N\OC/C=C/c1ccc(OC(F)(F)F)cc1` as the molecule, how does the Ki (Coagulation factor X) read?
A: 1.97 µM

Q: For `CCOC(=O)[C@]1(C)CCC[C@@]2(C)[C@@H]3CC[C@@]4(C)C[C@]3(CC[C@@H]21)C/C4=N\OCc1ccc(Cl)c(F)c1`, which Ki (Coagulation factor X) is on record?
A: 9.79 µM

Q: For `C=CCO/N=C1\C[C@]23CC[C@H]4[C@@](C)(CCC[C@@]4(C)C(=O)OCC)[C@@H]2CC[C@@]1(C)C3`, which Ki (Coagulation factor X) is on record?
A: 8.61 µM

Q: With `CCOC(=O)[C@]1(C)CCC[C@@]2(C)[C@@H]3CC[C@@]4(C)C[C@]3(CC[C@@H]21)C/C4=N\OCc1cnc(Cl)s1` as the molecule, how does the Ki (Coagulation factor X) read?
A: 1.94 µM

Q: Which results are given for `CCOC(=O)[C@]1(C)CCC[C@@]2(C)[C@@H]3CC[C@@]4(C)C[C@]3(CC[C@@H]21)CC4=O`?
A: TT (Rattus norvegicus [1]): 14.9 min; Ki (Coagulation factor X): 4.58 µM

Q: With `CCOC(=O)[C@]1(C)CCC[C@@]2(C)[C@@H]3CC[C@@]4(C)C[C@]3(CC[C@@H]21)C/C4=N\OCc1c(C)noc1C` as the molecule, how does the Ki (Coagulation factor X) read?
A: 2.88 µM

Q: Which Ki (Coagulation factor X) does the source give for `CCOC(=O)[C@]1(C)CCC[C@@]2(C)[C@@H]3CC[C@@]4(C)C[C@]3(CC[C@@H]21)C/C4=N\OC/C=C/c1ccc(C#N)cc1` here?
A: 13.3 µM

Q: Which TT (Rattus norvegicus [1]) does the source give for `COC(=O)[C@H](c1ccccc1Cl)N1CCc2sccc2C1` [CLOPIDOGREL] here?
A: 21 min

Q: For `C[C@@]12CC[C@@H]3[C@@](CC[C@H]4[C@@]3(C)CCC[C@@]4(C)C(=O)O)(C/C1=N/O)C2`, which TT (Rattus norvegicus [1]) is on record?
A: 12.9 min

Q: What about the Ki (Coagulation factor X) of the same molecule?
A: 7.99 µM

Q: For `CCOC(=O)[C@]1(C)CCC[C@@]2(C)[C@@H]3CC[C@@]4(C)C[C@]3(CC[C@@H]21)C/C4=N\OCc1c(F)c(F)c(F)c(F)c1F`, which Ki (Coagulation factor X) is on record?
A: 0.321 µM

Q: For `CCOC(=O)[C@]1(C)CCC[C@@]2(C)[C@@H]3CC[C@@]4(C)C[C@]3(CC[C@@H]21)C/C4=N\OC/C=C/c1ccc2oc3ccccc3c2c1`, which Ki (Coagulation factor X) is on record?
A: 21 µM

Q: With `CCOC(=O)c1ccc(CO/N=C2\C[C@]34CC[C@H]5[C@@](C)(CCC[C@@]5(C)C(=O)OCC)[C@@H]3CC[C@@]2(C)C4)o1` as the molecule, how does the Ki (Coagulation factor X) read?
A: 9.88 µM

Q: With `CCOC(=O)[C@]1(C)CCC[C@@]2(C)[C@@H]3CC[C@@]4(C)C[C@]3(CC[C@@H]21)C/C4=N\OC/C=C/c1ccc2[nH]c3ccccc3c2c1` as the molecule, how does the Ki (Coagulation factor X) read?
A: 26.4 µM

Q: With `CCOC(=O)[C@]1(C)CCC[C@@]2(C)[C@@H]3CC[C@@]4(C)C[C@]3(CC[C@@H]21)C/C4=N\OC/C=C/c1cc(F)c(F)c(F)c1` as the molecule, how does the Ki (Coagulation factor X) read?
A: 1.98 µM

Q: For `CCOC(=O)[C@]1(C)CCC[C@@]2(C)[C@@H]3CC[C@@]4(C)C[C@]3(CC[C@@H]21)C/C4=N\OC/C=C/c1cccc(C(F)(F)F)c1`, which Ki (Coagulation factor X) is on record?
A: 4.86 µM

Q: Which TT (Rattus norvegicus [1]) does the source give for `CCOC(=O)[C@]1(C)CCC[C@@]2(C)[C@@H]3CC[C@@]4(C)C[C@]3(CC[C@@H]21)C[C@H]4O` here?
A: 9.4 min

Q: What about the Ki (Coagulation factor X) of the same molecule?
A: 25.1 µM

Q: For `CCOC(=O)[C@]1(C)CCC[C@@]2(C)[C@@H]3CC[C@@]4(C)C[C@]3(CC[C@@H]21)C/C4=N\OC/C=C/c1ccc(-c2cnco2)cc1`, which Ki (Coagulation factor X) is on record?
A: 1.93 µM

Q: For `CCOC(=O)[C@]1(C)CCC[C@@]2(C)[C@@H]3CC[C@@]4(C)C[C@]3(CC[C@@H]21)C/C4=N\OC/C=C/c1ccc2sccc2c1`, which Ki (Coagulation factor X) is on record?
A: 0.211 µM

Q: For `CCOC(=O)[C@]1(C)CCC[C@@]2(C)[C@@H]3CC[C@@]4(C)C[C@]3(CC[C@@H]21)C/C4=N\OC/C=C/c1cccc2ccccc12`, which Ki (Coagulation factor X) is on record?
A: 12.1 µM

Q: For `CCOC(=O)[C@]1(C)CCC[C@@]2(C)[C@@H]3CC[C@@]4(C)C[C@]3(CC[C@@H]21)C/C4=N\OCc1ccc(F)cc1`, which Ki (Coagulation factor X) is on record?
A: 4.33 µM

Q: Which Ki (Coagulation factor X) does the source give for `CCOC(=O)[C@]1(C)CCC[C@@]2(C)[C@@H]3CC[C@@]4(C)C[C@]3(CC[C@@H]21)C/C4=N\OC/C=C/c1ccc2ncccc2c1` here?
A: 4.18 µM

Q: What does the source list for `O=C(NC[C@H]1CN(c2ccc(N3CCOCC3=O)cc2)C(=O)O1)c1ccc(Cl)s1` [RIVAROXABAN]?
A: MRT [2]: 5.4 h; clearance [3]: 15 mL/min; half-life [4]: 3.7 h; AUC(0-inf) [5]: 6980 ng·h/mL; Vd [6]: 8.1 L; TT (Rattus norvegicus [1]): 23.4 min; half-life [7]: 4.4 h; Cmax [8]: 1580 ng/mL; APTT (Rattus norvegicus [9]): 21.9 s; AUC(0-inf) [10]: 3510 ng·h/mL; Vd [11]: 5.5 L; PT (Rattus norvegicus [12]): 19.5 s; CL/F [13]: 25 mL/min; bioavailability [14]: 59.7%; MRT [15]: 6.3 h

Q: With `CCOC(=O)[C@]1(C)CCC[C@@]2(C)[C@@H]3CC[C@@]4(C)C[C@]3(CC[C@@H]21)C/C4=N\OCc1csc2ccc(Cl)cc12` as the molecule, how does the Ki (Coagulation factor X) read?
A: 0.515 µM

Q: For `CCOC(=O)[C@]1(C)CCC[C@@]2(C)[C@@H]3CC[C@@]4(C)C[C@]3(CC[C@@H]21)C/C4=N\OCC1OCCO1`, which Ki (Coagulation factor X) is on record?
A: 1.61 µM

Q: Which TT (Rattus norvegicus [1]) does the source give for `C[C@@]12CC[C@@H]3[C@@](CC[C@H]4[C@@]3(C)CCC[C@@]4(C)C(=O)O)(CC1=O)C2` [ISOSTEVIOL] here?
A: 17.2 min

Q: And the Ki (Coagulation factor X)?
A: 13.4 µM

Q: With `CCOC(=O)[C@]1(C)CCC[C@@]2(C)[C@@H]3CC[C@@]4(C)C[C@]3(CC[C@@H]21)C/C4=N\OC/C=C/c1ccc2nccnc2c1` as the molecule, how does the Ki (Coagulation factor X) read?
A: 3.6 µM

Q: For `CCOC(=O)[C@]1(C)CCC[C@@]2(C)[C@@H]3CC[C@@]4(C)C[C@]3(CC[C@@H]21)C/C4=N\OCc1cc(Cl)ccc1Cl`, which Ki (Coagulation factor X) is on record?
A: 9.25 µM

Q: Which Ki (Coagulation factor X) does the source give for `CCOC(=O)[C@]1(C)CCC[C@@]2(C)[C@@H]3CC[C@@]4(C)C[C@]3(CC[C@@H]21)C/C4=N\OCc1ccc(C(F)(F)F)cc1` here?
A: 2.69 µM

Q: For `CCOC(=O)[C@]1(C)CCC[C@@]2(C)[C@@H]3CC[C@@]4(C)C[C@]3(CC[C@@H]21)C/C4=N\OCc1cccc(Cl)c1`, which Ki (Coagulation factor X) is on record?
A: 18.1 µM

Q: For `CCOC(=O)[C@]1(C)CCC[C@@]2(C)[C@@H]3CC[C@@]4(C)C[C@]3(CC[C@@H]21)C/C4=N\OCc1cc(C)nn1C`, which Ki (Coagulation factor X) is on record?
A: 4.03 µM

Q: Which Ki (Coagulation factor X) does the source give for `CCOC(=O)[C@]1(C)CCC[C@@]2(C)[C@@H]3CC[C@@]4(C)C[C@]3(CC[C@@H]21)C/C4=N\OC/C=C/c1ccc(F)cc1` here?
A: 6.17 µM

Q: With `CCOC(=O)[C@]1(C)CCC[C@@]2(C)[C@@H]3CC[C@@]4(C)C[C@]3(CC[C@@H]21)C/C4=N\OC/C=C/c1ccc2[nH]ccc2c1` as the molecule, how does the Ki (Coagulation factor X) read?
A: 4.67 µM

Q: Which Ki (Coagulation factor X) does the source give for `CCOC(=O)[C@]1(C)CCC[C@@]2(C)[C@@H]3CC[C@@]4(C)C[C@]3(CC[C@@H]21)C/C4=N\OCc1ccc(OC(F)(F)F)cc1` here?
A: 1.02 µM

Q: With `CCOC(=O)[C@]1(C)CCC[C@@]2(C)[C@@H]3CC[C@@]4(C)C[C@]3(CC[C@@H]21)C/C4=N\OC/C=C/c1ccccc1` as the molecule, how does the Ki (Coagulation factor X) read?
A: 10.7 µM
